# Measured values: patent US7786111B2, “Medicaments for the treatment of chronic obstructive pulmonary disease” (Boehringer Ingelheim Pharma GmbH & Co. KG, priority 2002, dated 2010)
# Where a name gives a salt, the structure may show the parent alone.
row,SMILES,melting point [°C]
1,"Cc1cc(F)ccc1CC(C)(C)NCC(O)c1cc(O)cc2c1OCC(=O)N2 (centres unmarked) (as salt: hydrochloride) [Example 11, 8-{2-[2-(4-fluoro-2-methylphenyl)-1,1-dimethylethylamino]-1-hydroxyethyl}-6-hydroxy-4H-benzo[1,4]oxazin-3-one]",278 to 280
2,"Cc1cc(CC(C)(C)NCC(O)c2cc(O)cc3c2OCC(=O)N3)ccc1F (centres unmarked) (as salt: hydrochloride) [Example 10, 8-{2-[2-(4-Fluoro-3-methylphenyl)-1,1-dimethylethylamino]-1-hydroxyethyl}-6-hydroxy-4H-benzo[1,4]oxazin-3-one]",278 to 280
3,CC(C)(Cc1ccc(F)cc1F)NCC(O)c1cc(O)cc2c1OCC(=O)N2 (centres unmarked) (as salt: hydrochloride),279 to 280

# The next lines start with the values.
row,melting point [°C],SMILES
1,235 to 238,"Cc1cc(C)cc(CC(C)(C)NCC(O)c2cc(O)cc3c2OCC(=O)N3)c1 (centres unmarked) (as salt: hydrochloride) [Example 15, 8-{2-[2-(3,5-dimethylphenyl)-1,1-dimethylethylamino]-1-hydroxyethyl}-6-hydroxy-4H-benzo[1,4]oxazin-3-one]"
2,201 to 204,"CC(C)(Cc1ccc(OCCCC(=O)O)cc1)NCC(O)c1cc(O)cc2c1OCC(=O)N2 (centres unmarked) [Example 16, 4-(4-{2-[2-hydroxy-2-(6-hydroxy-3-oxo-3,4-dihydro-2H-benzo[1,4]oxazin-8-yl)ethylamino]-2-methylpropyl}phenoxy)butyric acid]"
